Converted amounts (≈) assume the structure as drawn.

In one data set the test system is herpes simplex virus. The conditions noted are these: ref [19],[20],[21]; cited from earlier work.
A further data set concerns vaccinia virus. The conditions noted are these: ref [19],[20],[21]; cited from earlier work.
For data set [1], the system named is reverse transcriptase activity of (AMV) and human immunodeficiency virus (HIV). The conditions noted are these: ref [34],[35],[36],[37],[38]; cited from earlier work.
For data set [2], the system named is hTERT RPE-1 normal retina (non-cancerous) cells. Briefly: Cytostatic activity, normal retina cells. Format: cell-based. The conditions noted are these: concentration causing 50% decrease in cell proliferation. The procedure:
(§1) The 50% cytostatic inhibitory concentration (IC50) causing a 50% decrease in cell proliferation was determined for all isolated isoxazolidines 14 and γ-lactams 15 toward nine cancerous cell lines (Capan-1 (pancreatic adenocarcinoma), Hap1 (chronic myeloid leukemia), HCT-116 (colorectal carcinoma), NCI-H460 (lung carcinoma), DND-41 (acute lymphoblastic leukemia), HL-60 (acute myeloid leukemia), K-562 (chronic myeloid leukemia), MM.1S (multiple myeloma) and Z-138 (non-Hodgkin lymphoma)) and normal retina (non-cancerous) cells (hTERT RPE-1). Docetaxel, etoposide and stauroporine were used as the reference compounds.
(§2) All assays were performed in 96-well microtiter plates. To each well was added (5−7.5) × 10^4 tumor cells and a given amount of the test compound. The cells were allowed to proliferate at 37 °C in a humidified, CO2-controlled atmosphere. At the end of the incubation period, the cells were counted in a Coulter counter. The IC50 (50% inhibitory concentration) was defined as the concentration of the compound that inhibited cell proliferation by 50%.

Data set [3] relates to Capan-1 (pancreatic adenocarcinoma) cells. Briefly: Cytostatic activity, Capan-1. Format: cell-based. The protocol: The 50% cytostatic inhibitory concentration (IC50) causing a 50% decrease in cell proliferation was determined for all isolated isoxazolidines 14 and γ-lactams 15 toward nine cancerous cell lines (Capan-1 (pancreatic adenocarcinoma), Hap1 (chronic myeloid leukemia), HCT-116 (colorectal carcinoma), NCI-H460 (lung carcinoma), DND-41 (acute lymphoblastic leukemia), HL-60 (acute myeloid leukemia), K-562 (chronic myeloid leukemia), MM.1S (multiple myeloma) and Z-138 (non-Hodgkin lymphoma)) and normal retina (non-cancerous) cells (hTERT RPE-1).
All assays were performed in 96-well microtiter plates. To each well was added (5−7.5) × 10^4 tumor cells and a given amount of the test compound. The cells were allowed to proliferate at 37 °C in a humidified, CO2-controlled atmosphere. At the end of the incubation period, the cells were counted in a Coulter counter.

The test system of data set [4] is Hap1 (chronic myeloid leukemia) cells. In words: Cytostatic activity, Hap1. Format: cell-based. The conditions noted are these: concentration causing 50% decrease in cell proliferation. The protocol:
as §1, §2

In data set [5] the test system is HCT-116 (colorectal carcinoma) cells. Briefly: Cytostatic activity, HCT-116. Format: cell-based. The conditions noted are these: concentration causing 50% decrease in cell proliferation. The procedure:
as §1, §2

For data set [6], the system named is NCI-H460 (lung carcinoma) cells. Briefly: Cytostatic activity, NCI-H460. Format: cell-based. The conditions noted are these: concentration causing 50% decrease in cell proliferation. The protocol: as §1, §2
Details of data set [7]: method as in PMID 12904074, PMID 20394405, PMID 15743182, PMID 17580846, PMID 17967914. The conditions noted are these: ref [34],[35],[36],[37],[38]; read-out: 50% cytotoxic concentration (CC50); cited from earlier work.
Data set [8] has as its system viral uracil-DNA glycosylase (UDG). The arrangement: method as in PMID 11084051. The conditions noted are these: ref [23]; cited from earlier work.
For a further data set, the system named is human enzymes (UDG). Further details: method as in PMID 11084051. The conditions noted are these: ref [23]; cited from earlier work.
Data set [9] deals with influenza type virus AH1N1. The arrangement: method as in PMID 23225323. The conditions noted are these: ref [22]; cited from earlier work.
Setting [10] is: concentration causing 50% decrease in cell proliferation.
[11] abbreviates: Homo sapiens, CAPAN-1, concentration causing 50% decrease in cell proliferation.

`Nc1ncnc2c1ncn2C[C@H]1C[C@H](O)[C@@H](CO)O1` [Compound 1]: in the data set with herpes simplex virus, the “minimum inhibitory concentration (MIC)” value is 5 to 20 µg/mL. Besides, the “activity against vaccinia virus” value in the data set with vaccinia virus is given as “active”.

Consider `Nc1nc2c(ncn2C[C@H]2C[C@H](O)[C@@H](CO)O2)c(=O)[nH]1` [Compound 2], for which the “minimum inhibitory concentration (MIC)” value in the data set with herpes simplex virus was 5 to 20 µg/mL. Besides, the “activity against vaccinia virus” value in the data set with vaccinia virus is reported as “active”.

`C[C@H](Cn1cnc2c(N)ncnc21)OCP(=O)(O)O` [tenofovir]: the “level of inhibition of reverse transcriptase activity” value in data set [1] was 1 nM.

With `COC(=O)[C@H]1C[C@H](Cn2cc(Cl)c(=O)[nH]c2=O)N(C)O1` (relative stereo) [trans-14e, Methyl trans-3-{[5-chloro-2,4-dioxo-3,4–dihydropyrimidin-1(2H)-yl]metyl}-2-methylisoxazolidine-5-carboxylate], the IC50 was over 100 µM in data set [2]; 38.5 µM in [3] (setting [10]); 42.7 µM in data set [4]; 43.5 µM in [5]; 41.9 µM in data set [6].

As for `Cc1cn([C@H]2C[C@H](N=[N+]=[N-])[C@@H](CO)O2)c(=O)[nH]c1=O` [AZT, azidothymidine], the “level of inhibition of reverse transcriptase activity” value in data set [1] is 10 nM. In addition, the CC50 in [7] is 12.1 µM.

Regarding `O=c1ccn(C[C@H]2C[C@H](O)[C@@H](CO)O2)c(=O)[nH]1` [Compound 4], the “inhibition of viral uracil-DNA glycosylase (UDG)” value in [8] is listed as “selective inhibitor”. Also, the “effect on the human enzymes” value in the data set on human enzymes (UDG) is reported as “only small effect”.

On to `COC(=O)[C@@H]1C[C@H](Cn2cc(Br)c(=O)[nH]c2=O)N(C)O1` (relative stereo) [cis-14d, Methyl cis-3-{[5-bromo-2,4-dioxo-3,4–dihydropyrimidin-1(2H)-yl]metyl}-2-methylisoxazolidine-5-carboxylate], for which the IC50 is over 100 µM in [2]; 95 µM in data set [3] (setting [10]); over 100 µM in [4]; 86.4 µM in data set [5]; 62.3 µM in data set [6].

Regarding `CC(=O)O[C@@]12CO[C@@H]1C[C@H](O)[C@@]1(C)C(=O)[C@H](O)C3=C(C)[C@@H](OC(=O)[C@H](O)[C@@H](NC(=O)OC(C)(C)C)c4ccccc4)C[C@@](O)([C@@H](OC(=O)c4ccccc4)[C@H]21)C3(C)C` [Docetaxel, reference compound], the IC50 worked out at 25 µM in data set [2] (hTERT-RPE1); 0.95 µM in [3] (setting [11]); 1.19 µM in [4] (Homo sapiens, HAP1); 0.25 µM in [5] (Homo sapiens, HCT-116); 0.89 µM in data set [6] (Homo sapiens, NCI-H460).

`COC(=O)[C@@H]1C[C@H](Cn2cc(F)c(=O)[nH]c2=O)N(C)O1` (relative stereo) [cis-14c, Methyl cis-3-{[5-fluoro-2,4-dioxo-3,4–dihydropyrimidin-1(2H)-yl]metyl}-2-methylisoxazolidine-5-carboxylate]: the IC50 in data set [2], in [3] (setting [10]), in data set [4], in data set [5] and in data set [6] was over 100 µM throughout.

As to `COC(=O)[C@H]1C[C@H](CN2CCC(=O)NC2=O)N(C)O1` (relative stereo) [trans-14g, Methyl trans-3-{[2,4-dioxotetrahydropyrimidin-1(2H)-yl]metyl}-2-methylisoxazolidine-5-carboxylate], the IC50 in [2] is over 100 µM; in data set [3] (setting [10]) it was 38.3 µM; in data set [4] it was 58.1 µM; in data set [5], 61 µM; in [6], 48.6 µM.

With `COC(=O)[C@@H]1C[C@H](Cn2cc(Cl)c(=O)[nH]c2=O)N(C)O1` (relative stereo) [cis-14e, Methyl cis-3-{[5-chloro-2,4-dioxo-3,4–dihydropyrimidin-1(2H)-yl]metyl}-2-methylisoxazolidine-5-carboxylate], the IC50 in [2] was over 100 µM; in data set [3] (setting [10]), 51.2 µM; in data set [4] it was 44.2 µM; in [5], 26.7 µM; in [6], 48.8 µM.

In the case of `COC(=O)[C@@H]1C[C@H](Cn2ccc(=O)[nH]c2=O)N(C)O1` (relative stereo) [cis-14a, Methyl cis-3-{[2,4-dioxo-3,4–dihydropyrimidin-1(2H)-yl]methyl}-2-methylisoxazolidine-5-carboxylate], the IC50 was over 100 µM in [2] (hTERT-RPE1); 54.8 µM in data set [3] (setting [11]); over 100 µM in data set [4] (Homo sapiens, HAP1); over 100 µM in [5] (Homo sapiens, HCT-116); over 100 µM in [6] (Homo sapiens, NCI-H460).

For `O=c1[nH]cnc2c1ncn2C[C@H]1C[C@H](O)[C@@H](CO)O1` [Compound 3], the IC50 in data set [9] is reported as 25.2 µg/mL (≈ 94.6 µM).

As for `CN1C(=O)[C@H](O)C[C@@H]1Cn1cc(Cl)c(=O)[nH]c1=O` (relative stereo) [cis-15e, cis-5-Chloro-1-[(4-hydroxy-1-methyl-5-oxopyrrolidin-2-yl)methyl]pyrimidine-2,4(1H,3H)-dione], the IC50 is over 100 µM in data set [2] (hTERT-RPE1); 28 µM in [3] (setting [11]); 51.5 µM in data set [4] (Homo sapiens, HAP1); 58.5 µM in [5] (Homo sapiens, HCT-116); 28.6 µM in data set [6] (Homo sapiens, NCI-H460). For the same compound, in data set [5], the “IC50 (µM) HCT-116 Colorectal Carcinoma” value was “inhibited the proliferation”.

As to `COC(=O)[C@@H]1C[C@H](Cn2cc(C)c(=O)[nH]c2=O)N(C)O1` (relative stereo) [cis-14b, Methyl cis-2-methyl-3-{[5-methyl-2,4-dioxo-3,4–dihydropyrimidin-1(2H)-yl]methyl}isoxazolidine-5-carboxylate], the IC50 in data set [2] (hTERT-RPE1) was over 100 µM; in data set [3] (setting [11]), 55.2 µM; in data set [4] (Homo sapiens, HAP1), 63 µM; in data set [5] (Homo sapiens, HCT-116), over 100 µM; in data set [6] (Homo sapiens, NCI-H460), 60.3 µM.

In general, IC50 refers to the concentration needed to halve the response being measured.

The values above are taken from paper PMC6891762, “Novel Isoxazolidine and γ-Lactam Analogues of Homonucleosides” (Molecules, 2019).
